34 compounds from US9029384B2, “Phosphatidylinositol 3-kinase inhibitors” (Gilead Calistoga LLC, priority 2012, dated 2015) can be followed below.

Structures are written as SMILES.

The subject of one test is basophils. The test can be described thus: Basophil activation in human whole blood (Flow2 CAST kit, CD63 positive cells). It is filed as cell-based. The settings on record: basophils activated with anti-FcεRI mAb or fMLP, geometric mean. On the procedure: Effect on basophil activation was measured in human whole blood using the Flow2 CAST® kit (Buhlmann Laboratories AG, Baselstrasse, Switzerland) following the protocol provided by the manufacturer with minor modifications. Human whole blood was collected into K2-EDTA venipuncture tubes. Whole blood samples were treated with either DMSO (0.3% final) or a serial dilution of compounds in DMSO for 60 minutes at 37° C. Basophils were then activated either with anti-FcεRI mAb or with fMLP. To activate basophils using the anti-FcεRI mAb; 50 μl of whole blood was mixed with 110 μl of stimulation buffer (B-BAT-STB) and 20 μl of anti-FcεRI (B-BAT-STCON). To activate basophils with fMLP; 50 μl of whole blood was mixed with 80 μl of stimulation buffer (B-BAT-STB) and 50 μl of fMLP (B-CCR-FMLP). Stimulation buffer was used as a negative control. 20 μl of the staining reagent (combination of anti-human CD63-FITC and anti-human CCR3-PE mAbs) was then added to each tube. […] Subsequently, erythrocytes were lysed and fixed by the addition of 2 ml of lysing solution (B-BAT-LYR) for 10 min at room temperature. Cells were pelleted by centrifugation at 1200 rpm for 10 min at room temperature in a swing-out rotor. Supernatant was aspirated and cell pellet resuspended in 400 μl of wash buffer. Flow cytometric analysis of the basophil activation was performed on a FC500MPL flow cytometer (Beckman Coulter Inc., Fullerton, Calif.). CCR3-staining and side scatter were applied to gate at least 200 basophils that expressed a high density of CCR3. The percent CD63 positive cells within the gated basophil population were determined in different treatment groups and normalized to the vehicle control (0.3% DMSO) with anti-FcεRI mAb of fMLP stimulus as 100%. Final compound concentration was adjusted to correct for dilution effect of added reagents. The EC50 values were calculated from the analysis of the dose-response curves to a four-parameter equation. All EC50 values represent geometric mean values and are reported in units of nM.

The target of another test is T1, PI3Kδ (Homo sapiens, UniProt O00329).
T1 construct: made in house
Description: Enzymatic activity of PI3K isoforms, TR-FRET assay (PIP3 formation). It is filed as biochemical. The settings on record: PI3Kδ; TR-FRET, 2×Km ATP, 10 μM PIP2; read-out: IC50. The source says: Enzymatic Activity of PI3K Isoforms
The TR-FRET assay was used to monitor formation of the product 3,4,5-inositol triphosphate molecule (PIP3) as it competed with fluorescently labeled PIP3 for binding to the GRP-1 pleckstrin homology domain protein. An increase in […] product results in a decrease in TR-FRET signal as the labeled fluorophore is displaced from the GRP-1 protein binding site.
Class I PI3K isoforms were expressed and purified as heterodimeric recombinant proteins. All assay reagents and buffers for the TR-FRET assay were purchased from Millipore. […] After an assay reaction time of 30 minutes at 25° C., reactions were terminated with a final concentration of 10 mM EDTA, 10 nM labeled-PIP3, and 35 nM Europium labeled GRP-1 detector protein before reading TR-FRET on an Envision plate reader (Ex: 340 nm; Em: 615/665 nm; 100 μs delay and 500 μs read window).
Data are normalized based on a positive (1 uM wortmanin) and negative (DMSO) controls. The α, β, δ, and γ IC50 values were calculated from the fit of the dose-response curves to a four-parameter equation. IC50 are reported in units of nM.
IC50 values were obtained for all PI3K isoforms (α, β, δ, and γ), and Table 2 summarizes the IC50 data collected for PI3Kδ in this Example B1.

T1 sequence (O00329 whole entry): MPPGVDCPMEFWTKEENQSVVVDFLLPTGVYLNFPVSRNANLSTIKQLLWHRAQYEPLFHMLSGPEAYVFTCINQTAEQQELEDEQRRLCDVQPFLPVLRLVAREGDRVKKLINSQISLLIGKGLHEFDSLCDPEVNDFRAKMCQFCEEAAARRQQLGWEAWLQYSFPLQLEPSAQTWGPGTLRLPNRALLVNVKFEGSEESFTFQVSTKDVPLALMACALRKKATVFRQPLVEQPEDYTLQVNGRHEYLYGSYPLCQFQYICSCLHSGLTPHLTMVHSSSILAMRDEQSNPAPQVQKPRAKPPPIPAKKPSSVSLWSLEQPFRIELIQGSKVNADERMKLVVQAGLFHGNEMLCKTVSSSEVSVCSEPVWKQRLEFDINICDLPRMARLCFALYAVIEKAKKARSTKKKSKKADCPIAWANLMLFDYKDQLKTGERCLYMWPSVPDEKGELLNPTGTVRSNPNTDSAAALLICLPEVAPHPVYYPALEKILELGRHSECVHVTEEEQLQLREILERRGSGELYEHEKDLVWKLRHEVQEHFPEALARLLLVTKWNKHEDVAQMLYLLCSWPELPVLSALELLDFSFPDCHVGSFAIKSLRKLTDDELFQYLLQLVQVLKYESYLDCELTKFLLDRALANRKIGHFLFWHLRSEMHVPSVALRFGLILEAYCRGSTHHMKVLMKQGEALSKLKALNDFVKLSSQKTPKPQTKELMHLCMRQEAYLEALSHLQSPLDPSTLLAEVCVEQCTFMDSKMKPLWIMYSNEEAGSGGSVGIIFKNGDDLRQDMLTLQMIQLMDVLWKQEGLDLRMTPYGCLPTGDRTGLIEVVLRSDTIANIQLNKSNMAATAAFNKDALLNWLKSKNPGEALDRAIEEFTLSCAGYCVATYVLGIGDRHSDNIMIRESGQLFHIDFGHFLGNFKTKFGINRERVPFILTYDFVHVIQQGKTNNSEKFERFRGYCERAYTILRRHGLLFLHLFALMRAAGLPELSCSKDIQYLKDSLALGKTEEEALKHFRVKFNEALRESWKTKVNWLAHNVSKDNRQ
T1 sequence (P27986 whole entry partner): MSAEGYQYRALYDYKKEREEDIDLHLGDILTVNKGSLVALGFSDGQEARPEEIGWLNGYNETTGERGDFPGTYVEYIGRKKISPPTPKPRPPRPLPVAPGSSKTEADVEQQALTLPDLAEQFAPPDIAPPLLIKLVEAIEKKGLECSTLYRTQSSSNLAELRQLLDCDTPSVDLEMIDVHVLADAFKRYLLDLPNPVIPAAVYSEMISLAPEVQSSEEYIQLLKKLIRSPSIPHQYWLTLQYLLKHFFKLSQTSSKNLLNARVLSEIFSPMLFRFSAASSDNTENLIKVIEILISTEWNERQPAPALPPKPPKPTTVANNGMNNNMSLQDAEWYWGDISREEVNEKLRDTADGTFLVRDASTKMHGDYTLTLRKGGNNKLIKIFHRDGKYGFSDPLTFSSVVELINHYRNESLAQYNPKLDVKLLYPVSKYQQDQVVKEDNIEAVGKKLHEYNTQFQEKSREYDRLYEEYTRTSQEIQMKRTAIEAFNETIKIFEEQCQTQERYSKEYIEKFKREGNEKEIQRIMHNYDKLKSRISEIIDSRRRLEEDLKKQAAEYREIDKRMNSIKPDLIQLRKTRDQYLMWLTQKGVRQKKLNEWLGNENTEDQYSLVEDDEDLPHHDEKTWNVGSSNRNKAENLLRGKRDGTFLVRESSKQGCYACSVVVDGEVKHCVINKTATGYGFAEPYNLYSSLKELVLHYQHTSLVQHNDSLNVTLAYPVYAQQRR

For the compound `CC(Nc1nc(N)nc(N)c1C#N)c1nc2cccc(O)c2c(=O)n1-c1ccccc1` (single isomer, unassigned) [Compound 2a], in the test on basophils (Homo sapiens), the EC50 lay within 1 to 10 nM. On PI3Kδ, the IC50 was below 1 nM.
On the same counts, the results for `Cc1cccc2c(=O)n(-c3ccccc3)c(C(C)Nc3nc(N)nc(N)c3C#N)nc12` (single isomer, unassigned) [Compound 3a] are 10 to 50 nM and 1 to 10 nM.
On the same counts, the results for `Cc1cccc2c(=O)n(-c3cccc(Cl)c3)c(C(C)Nc3nc(N)nc(N)c3C#N)nc12` (single isomer, unassigned) [Compound 6a] are above 50 nM and below 1 nM.
In the same order, the values of `CC(Nc1nc(N)nc(N)c1C#N)c1nc2cccc(C#N)c2c(=O)n1-c1ccccc1` (single isomer, unassigned) [Compound 7a] are below 1 nM and 1 to 10 nM.
Consider `CC(Nc1nc(N)nc(N)c1C#N)c1nc2ccc(F)cc2c(=O)n1-c1ccccc1` (single isomer, unassigned) [Compound 9a], for which the concentration for a half-maximal effect (EC50) in the test with basophils (Homo sapiens) was in the range of 1 to 10 nM. For the same compound, the half-maximal inhibitory concentration (IC50) at PI3Kδ was in the range of 1 to 10 nM.
As for `CC(Nc1nc(N)nc(N)c1C#N)c1nc2ccc(F)cc2c(=O)n1-c1cccc(Cl)c1` (single isomer, unassigned) [Compound 14a], the EC50 with basophils (Homo sapiens) was in the range of 1 to 10 nM. The IC50 at PI3Kδ fell in the range of 1 to 10 nM.
Take `Cc1cccc2nc(C(C)Nc3nc(N)nc(N)c3C#N)n(-c3ccccc3)c(=O)c12` (single isomer, unassigned) [Compound 23a]: the EC50 with basophils (Homo sapiens) is below 1 nM. The IC50 on PI3Kδ is below 1 nM.
`CC(Nc1nc(N)nc(N)c1C#N)c1nc2cccc(Cl)c2c(=O)n1-c1cc(F)cc(C(F)(F)F)c1` (single isomer, unassigned) [Compound 45a]: the concentration giving a half-maximal response (EC50) in the test with basophils (Homo sapiens) was above 50 nM. Moreover, on PI3Kδ, the half-maximal inhibitory concentration (IC50) lay within 1 to 10 nM.
With `CC(Nc1nc(N)nc(N)c1C#N)c1nc2c(F)cccc2c(=O)n1-c1ccccc1` (single isomer, unassigned) [Compound 58a], the 50% effective concentration (EC50) with basophils (Homo sapiens) was in the range of 1 to 10 nM. Further, at PI3Kδ, the IC50 is 1 to 10 nM.
Turning to `CC(Nc1nc(N)nc(N)c1C#N)c1nc2c(F)ccc(F)c2c(=O)n1-c1ccccc1` (single isomer, unassigned) [Compound 59a], in the test with basophils (Homo sapiens), the EC50 is 1 to 10 nM. Further, the half-inhibitory concentration (IC50) on PI3Kδ was below 1 nM.
Regarding `Cc1ccc(F)c2nc(C(C)Nc3nc(N)nc(N)c3C#N)n(-c3ccccc3)c(=O)c12` (single isomer, unassigned) [Compound 60a], the EC50 with basophils (Homo sapiens) is below 1 nM. The IC50 on PI3Kδ is below 1 nM.
`CC(Nc1nc(N)nc(N)c1C#N)c1nc2cccc(C(F)F)c2c(=O)n1-c1ccccc1` (single isomer, unassigned) [Compound 62a]: the EC50 in the test on basophils (Homo sapiens) was below 1 nM. On PI3Kδ, the 50% inhibitory concentration (IC50) is below 1 nM.
Take `Cc1ccc(F)c2nc(C(C)Nc3nc(N)nc(N)c3C#N)n(-c3cccc(C#N)c3)c(=O)c12` (single isomer, unassigned) [Compound 64a]: the 50% effective concentration (EC50) with basophils (Homo sapiens) is 1 to 10 nM. Moreover, the IC50 on PI3Kδ was below 1 nM.
Consider `CC(Nc1nc(N)nc(N)c1C#N)c1nc2c(F)cc(F)cc2c(=O)n1-c1cc(F)cc(F)c1` (single isomer, unassigned) [Compound 70a], for which the EC50 with basophils (Homo sapiens) was in the range of 1 to 10 nM. For the same compound, the half-maximal inhibitory concentration (IC50) at PI3Kδ is 10 to 50 nM.
With `CC(Nc1nc(N)nc(N)c1C#N)c1nc2cccc(F)c2c(=O)n1-c1ccccc1` (single isomer, unassigned) [Compound 81a], the concentration giving a half-maximal response (EC50) in the test with basophils (Homo sapiens) was below 1 nM. Also, the concentration for half-maximal inhibition (IC50) on PI3Kδ is 1 to 10 nM.
In the same order, the values of `CC(Nc1nc(N)nc(N)c1C#N)c1nc2cccc(C(N)=O)c2c(=O)n1-c1ccccc1` (single isomer, unassigned) [Compound 92a] are above 50 nM and 1 to 10 nM.
On the same counts, the results for `CC(Nc1nc(N)nc(N)c1C#N)c1nc2cccc(S(C)(=O)=O)c2c(=O)n1-c1ccccc1` (single isomer, unassigned) [Compound 95a] are 10 to 50 nM and 1 to 10 nM.
On the same counts, the results for `CC(Nc1nc(N)nc(N)c1C#N)c1nc2cccc(S(C)(=O)=O)c2c(=O)n1-c1cc(F)cc(F)c1` (single isomer, unassigned) [Compound 96a] are 10 to 50 nM and 1 to 10 nM.
As to `COc1cccc2nc(C(C)Nc3nc(N)nc(N)c3C#N)n(-c3ccccc3)c(=O)c12` (single isomer, unassigned) [Compound 111a], in the test with basophils (Homo sapiens), the EC50 was above 50 nM. The IC50 on PI3Kδ is 10 to 50 nM.
In the same order, the values of `CC(Nc1nc(N)nc(N)c1C#N)c1nc2cccc(Cl)c2c(=O)n1-c1cc(Cl)cc(C(F)F)c1` (single isomer, unassigned) [Compound 115a] are 10 to 50 nM and 1 to 10 nM.
With `CC(Nc1nc(N)nc(N)c1C#N)c1nc2cccc(S(C)(=O)=O)c2c(=O)n1-c1cccc(C(F)F)c1` (single isomer, unassigned) [Compound 116a], the EC50 in the test with basophils (Homo sapiens) is above 50 nM. Further, the IC50 at PI3Kδ is 1 to 10 nM.
For the compound `CC(Nc1nc(N)nc(N)c1C#N)c1nc2cccc(S(C)(=O)=O)c2c(=O)n1-c1cccc(F)c1` (single isomer, unassigned) [Compound 117a], in the test on basophils (Homo sapiens), the EC50 is 10 to 50 nM. At PI3Kδ, the IC50 lay within 1 to 10 nM.
On the same counts, the results for `CC(Nc1nc(N)nc(N)c1C#N)c1nc2cccc(Cl)c2c(=O)n1-c1cc(C(F)F)cc(C(F)F)c1` (single isomer, unassigned) [Compound 119a] are 10 to 50 nM and 1 to 10 nM.
As for `CC(Nc1nc(N)nc(N)c1C#N)c1nc2c(F)ccc(C#N)c2c(=O)n1-c1ccccc1` (single isomer, unassigned) [Compound 124a], in the test on basophils (Homo sapiens), the EC50 lay within 1 to 10 nM. Moreover, at PI3Kδ, the 50% inhibitory concentration (IC50) is 1 to 10 nM.
Regarding `CC(Nc1nc(N)nc(N)c1C#N)c1nc2c(F)ccc(C#N)c2c(=O)n1-c1cc(F)cc(F)c1` (single isomer, unassigned) [Compound 125a], in the test with basophils (Homo sapiens), the EC50 was in the range of 10 to 50 nM. Further, the IC50 at PI3Kδ lay within 10 to 50 nM.
For `CC(Nc1nc(N)nc(N)c1C#N)c1nc2cccc(Br)c2c(=O)n1-c1ccccc1` (single isomer, unassigned) [Compound 129a], the EC50 in the test on basophils (Homo sapiens) was below 1 nM. Further, the half-inhibitory concentration (IC50) at PI3Kδ is below 1 nM.
Take `CC(Nc1nc(N)nc(N)c1C#N)c1nc2cccc(C#N)c2c(=O)n1-c1cccc(F)c1` (single isomer, unassigned) [Compound 131a]: the EC50 with basophils (Homo sapiens) was 1 to 10 nM. The IC50 at PI3Kδ lay in the range of 1 to 10 nM.
Turning to `CC(Nc1nc(N)nc(N)c1C#N)c1nc2cccc(Cl)c2c(=O)n1-c1cc(C(F)F)cc(C(F)F)c1` (single isomer, unassigned) [Compound 137a], in the test with basophils, the concentration for a half-maximal effect (EC50) lay in the range of 10 to 50 nM. Also, the half-maximal inhibitory concentration (IC50) at PI3Kδ is 1 to 10 nM.
In the case of `CC(Nc1nc(N)nc(N)c1C#N)c1nc2ccc(F)c(Cl)c2c(=O)n1-c1cc(F)cc(C(F)F)c1` (single isomer, unassigned) [Compound 141a], in the test with basophils (Homo sapiens), the half-maximal effective concentration (EC50) was in the range of 10 to 50 nM. Further, the half-maximal inhibitory concentration (IC50) on PI3Kδ fell in the range of 10 to 50 nM.
As to `CC(Nc1nc(N)nc(N)c1C#N)c1nc2cccc(S(C)(=O)=O)c2c(=O)n1-c1ccccc1F` (single isomer, unassigned) [Compound 142a-1], the concentration giving a half-maximal response (EC50) with basophils (Homo sapiens) was 10 to 50 nM. Besides, on PI3Kδ, the half-maximal inhibitory concentration (IC50) lay within 1 to 10 nM.
Consider `CC(Nc1nc(N)nc(N)c1C#N)c1nc2cccc(S(C)(=O)=O)c2c(=O)n1-c1ccccc1F` (single isomer, unassigned) [Compound 142a-2], for which the concentration for a half-maximal effect (EC50) in the test on basophils lay within 10 to 50 nM. The IC50 at PI3Kδ was in the range of 1 to 10 nM.
For the compound `CC(Nc1nc(N)nc(N)c1C#N)c1nc2cccc(S(C)(=O)=O)c2c(=O)n1-c1c(F)cccc1F` (single isomer, unassigned) [Compound 146a], in the test on basophils (Homo sapiens), the EC50 was above 50 nM. Further, the IC50 at PI3Kδ is 1 to 10 nM.
In the same order, the values of `CC(Nc1nc(N)nc(N)c1C#N)c1nc2c(F)ccc(F)c2c(=O)n1-c1cccc(F)c1` (single isomer, unassigned) [Compound 148a] are below 1 nM and 1 to 10 nM.
In the same order, the values of `CC(Nc1nc(N)nc(N)c1Cl)c1nc2cccc(S(C)(=O)=O)c2c(=O)n1-c1cccc(F)c1` (single isomer, unassigned) [Compound 153a] are 10 to 50 nM and 1 to 10 nM.

Usually EC50 stands for the midpoint of the concentration-response curve. As a reminder, the IC50 is the point on the concentration scale where inhibition reaches its midpoint.
